In data set [1] the test system is HSV-2. The experiment in a line: In vitro antiviral screening, CPE inhibition in HFF cells. It is filed as cell-based, herpes simplex virus 2. The following applies: for EC50: HSV-2, CPE Inhibition.
Data set [2] concerns HCMV. Described as above. The following applies: for EC50: HCMV, CPE Inhibition. Format: cell-based, human cytomegalovirus.
The test system of data set [3] is HSV-1 strain McKrae. The experiment in a line: HSV-1 epithelial keratitis rabbit model, topical treatment, SLE scores. Format: in vivo. The following applies: 14 days post-inoculation, 1% topical 5 times per day. From the text:
(§1) The rabbit eye is an excellent model to study acute HSV-1 epithelial keratitis. Also, spontaneous and induced ocular HSV-1 shedding and corneal epithelial disease in rabbits has been used as a model of human ocular HSV-1 reactivation and recurrence. HSV-1 strain McKrae was used in studies for epithelial keratitis. HSV-1 strain RE was used for studies of HSV stromal keratitis.
i) Epithelial Keratitis: A group of ten rabbits was used to study each compound. Both eyes of all rabbits were used. An aqueous vehicle (like a placebo) and one positive control were obtained using 1% TFT (Viroptic®). Each compound at 1% concentration (TFT=33 mM, Gly-Gly-ACV=26.6 mM, Val-Val-ACV=18.6 mM) were applied (50 μl) topically 5 times per day every two hours starting at 8:00 a.m. and ending at 4:00 p.m. The treatment began on the 3rd post-inoculation day and continued for 5 consecutive days. Slit-lamp examinations were performed once every day for 8 days and thereafter once every other day until lesions resolved.

The subject of data set [4] is HSV-1 strain RE. Kind of data set: HSV-1 stromal keratitis rabbit model, topical treatment, SLE scores. It is filed as in vivo. The following applies: 13 days post-inoculation, 1% topical.
Description: as §1
ii) Stromal Keratitis: The experiment is similar to the part (i) experiment as far as the treatment cycles for all experimental drugs (TFT and Val-Val-ACV) are concerned. The effect of Val-Val-ACV on stromal keratitis induced by intrastromal injection with a high (20 μl of a 1×10^7 pfu/ml stock) titer of HSV-1RE strain was compared to that of TFT. Each compound at 1% concentration (TFT=33 mM, Val-Val-ACV=18.6 mM) was applied topically. The same scoring as noted in Table 4 is used for stromal keratitis. Emphasis is placed on the stromal edema and visibility into the aqueous chamber and the visualization of the pupil and iris.
A group of ten rabbits were used to study each compound. Both eyes of all rabbits were treated. Three to four groups of 10 rabbits are used in one experiment. This includes vehicle control, TFT, and the newly synthesized antiviral Val-Val-ACV.

The subject of data set [5] is human fibroblast foreskin cells (HFF).
For data set [6] the following is noted: rabbits, i.v. infusion, aqueous humor.
For data set [7] the following is noted: rat, in vivo, po.
Data set [8] has as its system Caco-2 monolayers.
Data set [9] in a line: physchem. The following applies: buffer, pH 5.6.
Data set [10] is described as follows: in vitro. The settings on record: human.
A short description of data set [11]: in vitro. The settings on record: human, Caco-2, pH 7.4.
A short description of data set [12]: in vitro. The settings on record: human. This is another data set of the same source.
Data set [13] can be described thus: in vitro. The following applies: male, New Zealand albino, rabbit, tissue homogenate.

Structures are written as SMILES. Read-outs that look alike come from different tables or passages of the source. Where only a bound is given, the exact number is not on record here.

Usually EC50 stands for the concentration giving half of the maximal effect. High values mean weaker potency, low ones greater potency. In general, half-life refers to the time in which the quantity being followed falls by half. A lower half-life goes with fast loss. The term Papp denotes a coefficient for how fast a substance crosses the barrier. High values mean fast passage, low ones slow passage.

For the molecule `CC(C)C(N)C(=O)NC(C(=O)OCCOCn1cnc2c(=O)[nH]c(N)nc21)C(C)C` (stereo not drawn) [Val-Val-ACV, Val-Valacyclovir], the EC50 was 22.7 µM in data set [1] and greater than 186 µM in [2]. Besides, in data set [3], the “Concentration required to achieve an SLE Score of 0.3” value was 18.6 mM. Also, in [4], the “Concentration required to achieve an SLE Score of 0.2” value came to 18.6 mM. Also, the CC50 in [5] (EBV column) is greater than 93.1 µM; in data set [5] (HCMV column), greater than 186 µM; in data set [5] (HSV-2 column), greater than 186 µM; in data set [5] (VZV column) it was greater than 186 µM; in data set [5] (read-out: CC50 (concentration required to inhibit cell proliferation by 50%), HSV-1) it was greater than 186 µM. Besides, the “MRT(aqueous)” value in data set [6] is recorded as “*188.39 min”. The “amino acid intermediate metabolite after oral administration” value in [7] was “no intact amino acid intermediate metabolite VACV could be detected”.

As for `CC(C)[C@H](N)C(=O)OCCOCn1cnc2c(=O)[nH]c(N)nc21` [Val-ACV, L-Valine-acyclovir], the “SI (Selectivity Index) = CC50/EC50” value in data set [1] is “SI > 35.7”; in [2], “SI > 9”. Besides, the concentration giving a half-maximal response (EC50) in [1] (Human alphaherpesvirus 2, HFF) came out at 7.77 µM; in [2] (Human betaherpesvirus 5, HFF), 30.8 µM. Moreover, the “inhibition in transport in presence of Gly-Sar” value in data set [8] is given as 47 % inhibition. Moreover, the half-life was roughly 72 h in data set [9]; 2.06 ± 0.138 h in data set [11]; 1.42 h in data set [13] (corneal half-life, corneal tissue); roughly 1.42 h in data set [13] (t1/2 of conversion to ACV, corneal tissue homogenate). Further, the CC50 in data set [10] (CC50 (concentration required to inhibit cell proliferation by 50%), HSV-1) was greater than 277 µM; in data set [10] (CC50, EBV column), greater than 138 µM; in data set [10] (CC50, HCMV column), greater than 277 µM; in data set [10] (CC50, HSV-2 column), greater than 277 µM; in [10] (CC50, VZV column), greater than 100 µM. Further, the Papp in data set [12] (Caco-2, pH 6) came to 3.01 ± 0.21 ×10⁻⁶ cm/s; in data set [12] (Caco-2, pH 7.4) it was 5.67 ± 1.13 ×10⁻⁶ cm/s.
